US7795263B2, “Pharmaceutical combination for and method of anesthetizing and immobilizing non-domesticated mammals” (Wildlife Laboratories, Inc., priority 2008, dated 2010)

Test system: captive white-tailed deer (Odocoileus virginianus)
Experiment: BAM-1 / BAM-2 in captive white-tailed deer with NTA antagonist reversal (Example 4)
Type: in vivo
Conditions: adult male not recovered after BAM-2 and NTA-1
Experimental: BAM was administered to captive white-tailed deer (Odocoileus virginianus) at two dose levels (BAM-1 and BAM-2) in an approved-protocol study, to evaluate efficacy, quality of anesthesia, and quality of recovery following administration of tolazoline, atipamezole, and naltrexone antagonists.
The deer of the study were housed in large (0.4-0.8 ha) forested outdoor pens and were fed 17% protein ration with fresh hay and water available ad libitum. The average ambient temperature at time of immobilization and anesthesia was 14.4° C. Temperatures ranged from −1.7 to 25.6° C. […]
Immediately after BAM injection, each deer was released into a 15×20 m observation pen where the time to first noticeable drug effect (e.g., stumbling, gait changes) was recorded, the sternal time (when deer collapsed without rising again) was recorded, the lateral time (when deer lowered head and became immobile) was recorded, and the approachable time (when deer remained immobile and seemed oblivious to its surroundings) was recorded. […]
The heart rate (determined by auscultation), respiration rate (determined by thoracic movements), rectal temperature, and hemoglobin saturation level were recorded at 0, 10, and 20 minutes after recumbency. […] Heart rate readings from pulse oximetry were compared to heart rates as determined by auscultation. […]

Question: How did the “effect of subsequent IM injection of 250 mg tolazoline” value turn out when c1ccc(CC2=NCCN2)cc1 [tolazoline] was run?
Answer: The value was “led to recovery from anesthesia, with minimal ataxia”.
